≈ marks a conversion by molar mass, not a printed value. Where a SMILES comes first, the peptide text is derived from it. [ ]: non-standard residue; d: D form. The star is where a group is joined. AMC = Cc1cc(=O)oc2cc(N*)ccc12; pGlu = O=C1CC[C@@H](C(=O)O)N1; Pip = O=C(O)[C@@H]1CCCCN1
Assays:
TRH-DE [1] = target: T1, TRH-DE (Sus scrofa, UniProt A0A287AP33); assay: continuous coupled fluorometric TRH-DE assay (TRHAMC substrate, DPP-IV coupling enzyme); format: biochemical, porcine; details: for inhibition at 1000 µM: peptide 1 mM
T1 construct: The inventor purified TRH-DE from porcine brain according to purification procedures previously published by Dr. K. Bauer; from tissue; host or cells: porcine brain (TRH-DE); bovine kidney (DPP-IV, gift from Dr. C. H. Williams)
Experimental: (§1) The inventor purified TRH-DE from porcine brain according to purification procedures previously published by Dr. K. Bauer, (Max-Planck-Institut, Hannover, Germany) (1). TRH-DE was purified almost 20,000 fold. […] Dipeptidyl peptidase IV (DPP-IV) (EC 3.4.14.5), purified from bovine kidney (7.7 mg ml^−1, specific activity of 17.5 U mg^−1 with Gly-ProAMC as substrate), was obtained as a gilt from Dr. C. H. Williams (Queen's University Belfast, U.K). (DPP-IV was used as the coupling enzyme used in the fluorometric assays).
(§2) One unit (U) of enzyme activity was defined as that amount catalysing the formation of one μmol of product in one minute under the standard conditions employed. All incubations in the assays described below were carried out in 20 mM potassium phosphate buffer, pH 7.5, at 37° C.
Kinetic analysis of peptides that are not hydrolysed by TRH-DE. A recently-developed continuous coupled fluorometric assay (23) was used to investigate the ability of those library peptides that were not hydrolysed by TRH-DE to inhibit TRHAMC degradation by TRH-DE. In this assay, TRHAMC is the substrate and dipeptidyl peptidase IV (DPP-IV) (EC 3.4.14.5) is the coupling enzyme. The reaction sequence is:
The reaction was monitored continuously by measuring the increase in AMC fluorescence. A linear progress curve with no discernible lag period was observed when the reaction was monitored over a period of 10 minutes. Nevertheless, data sampling was not commenced until 100 s from the start of the reaction to ensure measurements were taken after a steady state had been reached (see Ref. 23).
In a preliminary experiment, the peptides were screened for their ability to inhibit TRH-DE activity. The initial rate of TRHAMC hydrolysis by TRH-DE was measured by incubating 5 μM TRHAMC with 1.23 μg DPP-IV and 0.32 μg TRH-DE, both in the absence and presence of each library peptide (1 mM final concentration) under standard assay conditions (23). In each case the percentage inhibition (i%) was calculated using the equation i%=100(1-vi/vo), where vi and vo are the initial velocities in the presence and absence of peptide, respectively.
Since these peptides were poor inhibitors they were not examined further. The Ki values for the remainder of the peptides were determined by measuring their effects on TRHAMC degradation by TRH-DE using the continuous assay. Data were collected in duplicate at five different substrate concentrations and at least three different concentrations of each peptide.
Reversibility and time dependence of the inhibition produced by Glp-Gln-ProNH2, Glp-Asn-ProNH2 and Glp-Asn-ProAMC were examined by initially preincubating TRH-DE with each peptide at 37° C. for various periods up to 75 min. To investigate time dependence, the enzyme-peptide solution was subsequently added to the reaction mixture containing TRHAMC, DPP-IV, buffer and peptide, and TRH-DE activity was measured using the continuous assay. The final concentration of Glp-Gln-ProNH2, Glp-Asn-ProNH2 and Glp-Asn-ProAMC used was 400, 160 and 1 μM, respectively. […] TRH-DE activity was not affected by pre-incubation at 37° C.
Fluorescence measurements were made using a Perkin Elmer LS 50B Luminescence Spectrometer fitted with a thernostated cell holder. Wavelengths for excitation and emission were set at 370 nm and 440 nm, respectively, with slit widths of 10 nm and 5 nm, respectively.

Male Wistar rats = assay: behavioural effects (WDS, locomotion) after i.c.v. administration; format: in vivo, rat; details: 5 μg alone, 30 min
Experimental: Methods: Behavioural studies were conducted using experimentally naïve Male Wistar rats (200-250 g) maintained in a temperature controlled (21° C.), artificially-lighted (12 hr light cycle) room with free access to food and water. Behavioural effects of […] following intra-cerebroventricular (i.c.v.) administration: Animals were implanted with guide cannula aimed at the lateral cerebral ventricles (AP-0.92 mm, ML-1.5 mm, DV-2.6 mm relative to Bregma, atlas of Paxinos & Watson) under halothane anaesthesia. One week following surgery placement of the cannulae was assessed by the ability of a microinjection of angiotensin II (200 ng in 1 μl) to induce drinking behaviour. […] They were then administered either vehicle (1 μl 0.9% saline) or […] (5 μg in 1 μl) followed 1 minute later by vehicle (1 μl 0.9% saline) or TRH (5 μg in 1 μl). One minute after the last i.c.v. injection animals were placed back into the perspex cage and their behaviour monitored by a computer automated tracking system for 30 minutes (Ethovision Pro, Noldus) to provide measures of locomotor activity. Animals were videotaped for subsequent blind analysis of WDS behaviour by a trained observer. A threshold dose of 5 μg TRH was chosen for i.c.v. administration so that if […] enhanced responses to TRH, this would be clearly visible. The statistical significance of differences between behavioural effects of treatments was determined using the Student's t-test or ANOVA, followed by a post-ANOVA test, as indicated. Radioligand binding data were analysed using non-linear curve fitting software (Prism, Graph Pad Software Inc.). IC50 values calculated from competition experiments were converted to Ki values using the Cheng-Prusoff (41) equation Ki=IC50/(1+L/Kd), where L=ligand concentration and Kd=the apparent dissociation constant for [^3[…].

[2] = target: TRH receptors in rat cortical membranes; assay: radioligand binding to ^3H-3MeHis-TRH-labelled receptors in rat cortex; details: competition with 6-8 nM ^3H-3MeHis-TRH, Cheng-Prusoff
Experimental: Evaluation of the ability of TRH, Glp-Asn-ProNH2, and Glp-Asn-ProAMC to bind to ^3H-3MeHis-TRH-labelled receptors in rat cortex: Radioligand binding assays were conducted to investigate the possibility that the two TRH-DE inhibitors might exert their effects by acting independently at TRH receptors in the brain.
Cortex tissue from male Sprague-Dawley rats (250 g) was dissected out, weighed and homogenised in 30 volumes of ice-cold sodium phosphate buffer (0.02 M, pH 7.5). The homogenates were centrifuged at 30,000 g at 4° C. for 30 min. The supernatant was discarded and the pellet was resuspended at 100 mg wet wt/ml in buffer containing 177 μM bacitracin. […] Non-specific binding was defined in the presence of 10 μM TRH.
The statistical significance of differences between behavioural effects of treatments was determined using the Student's t-test or ANOVA, followed by a post-ANOVA test, as indicated. Radioligand binding data were analysed using non-linear curve fitting software (Prism, Graph Pad Software Inc.). IC50 values calculated from competition experiments were converted to Ki values using the Cheng-Prusoff (41) equation Ki=IC50/(1+L/Kd), where L=ligand concentration and Kd=the apparent dissociation constant for [^3H]-[3-MeHis]TRH.

TRH-DE [3] = target: T1, TRH-DE; assay: HPLC assay of peptide hydrolysis by TRH-DE (Glp production); format: biochemical, porcine; details: for hydrolysis by TRH-DE (release of Glp): 1 mM peptide incubated with TRH-DE 18 h at 37° C., HPLC; for Rate of hydrolysis: peptide 1 mM, 37° C., Glp production by HPLC, mean±S.D.
Experimental: as §1, §2
Kinetic analysis of the peptide library using HPLC—The ability of each peptide in the library to act as a TRH-DE substrate was assessed using HPLC. As an initial screen, 1 mM peptide was incubated with 0.8 μg TRH-DE in a total volume of 1 ml for 18 h at 37° C. Control samples were included in which peptide (1 mM) or Glp (0.2 mM-0.8 mM) were incubated under identical conditions in the absence of TRH-DE. TRH-DE activity was terminated by the addition of TFA (0.15% v/v) and samples were then analysed using HPLC as described previously (24). Products resulting from TRH-DE hydrolysis could be separated on a C-18 reverse-phase column (Hypersil, UK) using a linear gradient of 0-70% acetonitrile in 0.08% (v/v) TFA. The concentration of Glp formed by the action of TRH-DE on the peptide library was measured by UV absorbance at 206 nm with a quantitative detection limit of 0.1 mM for a 40 μl injection volume, employing a signal to noise ratio of 10. Following the incubation of each peptide with TRH-DE, evidence of Glp in the sample was taken to indicate that the peptide was a TRH-DE substrate.
The rates of hydrolysis for each of those peptides identified as substrates were then compared by measuring Gip production using microassays with shorter incubation times. In these assays peptide (1 mM) was incubated at 37° C. in a total volume of 100 μl. 0.8-3.2 μg TRH-DE and incubations times of 5 min to 18 h were used routinely. Measurements were made in triplicate. The rate of TRH-OH hydrolysis was also measured by this method.

TRH-DE [4] = details: published observation (21); cited from earlier work
TRH-DE [5] = target: T1, TRH-DE; details: From Ref. 23 (inventor's publication); cited from earlier work
[6] = non-linear regression, five TRHAMC concentrations and at least three peptide concentrations, mean±S.D. (n=3)

T1 sequence (A0A287AP33 1-1066): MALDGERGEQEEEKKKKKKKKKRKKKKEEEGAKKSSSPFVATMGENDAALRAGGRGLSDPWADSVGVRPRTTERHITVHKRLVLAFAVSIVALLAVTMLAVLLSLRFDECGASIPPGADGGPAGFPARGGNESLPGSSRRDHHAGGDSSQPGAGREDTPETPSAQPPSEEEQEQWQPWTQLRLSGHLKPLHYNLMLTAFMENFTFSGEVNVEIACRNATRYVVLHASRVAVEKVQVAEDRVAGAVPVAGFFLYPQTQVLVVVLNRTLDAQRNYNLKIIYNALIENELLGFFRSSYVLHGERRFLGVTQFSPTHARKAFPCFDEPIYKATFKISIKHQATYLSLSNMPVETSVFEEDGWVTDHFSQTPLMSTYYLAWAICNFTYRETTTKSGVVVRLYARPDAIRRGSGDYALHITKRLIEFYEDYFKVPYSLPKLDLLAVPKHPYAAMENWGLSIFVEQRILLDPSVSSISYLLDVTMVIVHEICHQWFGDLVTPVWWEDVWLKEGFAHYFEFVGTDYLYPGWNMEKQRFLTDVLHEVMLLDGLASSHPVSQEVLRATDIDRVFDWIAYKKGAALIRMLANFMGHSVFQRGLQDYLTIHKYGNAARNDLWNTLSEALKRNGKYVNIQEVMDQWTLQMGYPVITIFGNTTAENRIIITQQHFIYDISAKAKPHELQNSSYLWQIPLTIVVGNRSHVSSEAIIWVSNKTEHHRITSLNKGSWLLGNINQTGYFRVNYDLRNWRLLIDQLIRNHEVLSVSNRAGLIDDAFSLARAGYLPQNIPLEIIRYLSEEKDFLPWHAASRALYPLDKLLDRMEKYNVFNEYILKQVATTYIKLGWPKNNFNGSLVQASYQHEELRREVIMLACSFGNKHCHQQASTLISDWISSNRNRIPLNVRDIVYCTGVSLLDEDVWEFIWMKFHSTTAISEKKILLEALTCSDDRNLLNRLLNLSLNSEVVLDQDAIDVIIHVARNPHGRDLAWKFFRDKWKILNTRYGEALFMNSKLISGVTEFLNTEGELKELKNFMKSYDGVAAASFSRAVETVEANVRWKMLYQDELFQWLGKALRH

Molecule	Ki (TRH-DE [1]; [6])	hydrolysis by TRH-DE (release of Glp) (TRH-DE [3])	inhibition at 1000 µM (TRH-DE [1]; 5 μM TRHAMC substrate)	Rate of hydrolysis (TRH-DE [3])	substrate for TRH-DE (TRH-DE [4])	further results
Cc1cc(=O)oc2cc(NC(=O)[C@@H]3CCCN3C(=O)[C@H](CC(N)=O)NC(=O)[C@@H]3CCC(=O)N3)ccc12 [Glp-Asn-ProAMC, Glp-Asn-Pro-7amido-4-methyl coumarin] ([pGlu]-Asn-Pro-{AMC})	0.97 ± 0.08 µM	–	–	–	–	Ki (TRH-DE [1]; calculated from percent inhibition measured in duplicate at 5 μM substrate): 0.41 µM; mode of inhibition of TRH-DE (TRH-DE [1]; continuous assay, Lineweaver-Burk plot): simple competitive inhibitors; inhibition at 1 µM (TRH-DE [1]; peptide 1 μM, 5 μM TRHAMC substrate): 50%; reversibility and time dependence of inhibition (TRH-DE [1]; preincubation with TRH-DE up to 75 min at 37° C., Glp-Gln-ProNH2 400, Glp-Asn-ProNH2 160, Glp-Asn-ProAMC 1 μM): fully reversible and not time-dependent; number of WDS compared with vehicle (Male Wistar rats): Neither TRH nor Glp-Asn-ProAMC alone produced a significantly greater number of WDS than vehicle; pKi [2]: 4.32±0.24; solubility (physchem): 1000 µg/mL (≈ 2010 µM)
NC(=O)[C@@H]1CCCN1C(=O)[C@H](CCC(=O)O)NC(=O)[C@@H]1CCC(=O)N1 [Glp-Glu-ProNH2] ([pGlu]-Glu-Pro-NH2)	–	No detectable Glp	17%	–	is not	Ki (TRH-DE [1]; estimated from <20% inhibition at 1 mM peptide with the competitive inhibition relationship): > 1000 µM
Glp-His-ProOH	–	–	–	3.38 ± 0.18 (3) U mg^−1	–	Vmax (TRH-DE [3]; estimated from HPLC rates of hydrolysis using Vmax=vo{(Km+[S])/[S]}): 4.43 ± 0.24 (3) U mg^−1; Km (TRH-DE [5]): 311 µM

More lines, main results first:

Ki (TRH-DE [1]; [6])	hydrolysis by TRH-DE (release of Glp) (TRH-DE [3])	inhibition at 1000 µM (TRH-DE [1]; 5 μM TRHAMC substrate)	Rate of hydrolysis (TRH-DE [3])	Molecule	substrate for TRH-DE (TRH-DE [4])	further results
–	–	–	1.56 ± 0.13 (5) U mg^−1	NC(=O)[C@@H]1CCCN1C(=O)[C@H](Cc1ccccc1)NC(=O)[C@@H]1CCC(=O)N1 [Glp-Phe-ProNH2] ([pGlu]-Phe-Pro-NH2)	is also a substrate for TRH-DE	–
232 ± 26 µM	No detectable Glp	71%	–	NC(=O)[C@@H]1CCCN1C(=O)[C@H](Cc1c[nH]c2ccccc12)NC(=O)[C@@H]1CCC(=O)N1 [Glp-Trp-ProNH2] ([pGlu]-Trp-Pro-NH2)	–	–
500 ± 133 µM	No detectable Glp	40%	–	NC(=O)[C@@H]1CCCN1C(=O)[C@@H]1CCCCN1C(=O)[C@@H]1CCC(=O)N1 [Glp-homoPro-ProNH2] ([pGlu]-[Pip]-Pro-NH2)	–	–

Source: patent publication US7378397B2 (The Provost, Fellows and Scholars of the College of the …, priority 2000, dated 2008)
